Drawing on ChEMBL document CHEMBL1132103, “Acylcarnitine analogues as topical, microbicidal spermicides” (1999), this text covers MIC, Activity and minimal effective concentration for 6 molecules.

For experiment [1], the system named is Candida albicans. In words: Minimum inhibitory concentration required for growth inhibition of Candida albicans. The class given is functional.
For experiment [2], the system named is Human immunodeficiency virus 1. In words: In vitro inhibition of HIV-1 (RF strain) using cell-free inactivation assay at concentration of 0.032 mg/mL; NA: Not active. In kind it is functional, organism-based.
In experiment [3] the test system is Human immunodeficiency virus 1. In words: In vitro inhibition of HIV-1 (RF strain) using cell-free inactivation assay at concentration of 0.1 mg/mL; NA: Not active. In kind it is functional, organism-based.
Experiment [4] deals with Human immunodeficiency virus 1. In words: In vitro inhibition of HIV-1 (RF strain) using cell-free inactivation assay at concentration of 0.32 mg/mL. The class given is functional, organism-based.
For experiment [5], the system named is Human immunodeficiency virus 1. In words: In vitro inhibition of HIV-1 (RF strain) using cell-free inactivation assay at concentration of 1.0 mg/mL. In kind it is functional, organism-based.
For experiment [6], the system named is Human immunodeficiency virus 1. In words: In vitro inhibition of HIV-1 (RF strain) using cell-free inactivation assay at concentration of 10 mg/mL. In kind it is functional, organism-based.
Experiment [7] has as its system Human immunodeficiency virus 1. In words: In vitro inhibition of HIV-1 (RF strain) using cell-free inactivation assay at concentration of 3.2 mg/mL. In kind it is functional, organism-based.
Experiment [8] is filed under the species Homo sapiens. In words: In vitro spermicidal activity using spermicidal dilution at 7.6 +/- 0.4 mg/mL in the Sander-Cramer test. The class given is functional. Particulars: read-out: MEC.
In experiment [9] the test system is Human immunodeficiency virus 1. In words: In vitro inhibition of HIV-1 (RF strain) using cell-free inactivation assay at concentration of 0.032 mg/mL. The class given is functional, organism-based.
Experiment [10] deals with Human immunodeficiency virus 1. In words: In vitro inhibition of HIV-1 (RF strain) using cell-free inactivation assay at concentration of 0.1 mg/mL. The class given is functional, organism-based.
The species entered for experiment [11] is Homo sapiens. In words: In vitro spermicidal activity using spermicidal dilution at 102.4 +/- 13.5 mg/mL in the Sander-Cramer test. The class given is functional. The conditions noted are these: read-out: MEC.
The species entered for experiment [12] is Homo sapiens. In words: In vitro spermicidal activity using spermicidal dilution at 4.8 +/- 0.5 mg/mL in the Sander-Cramer test. In kind it is functional. The conditions noted are these: read-out: MEC.
The species named for experiment [13] is Homo sapiens. In words: In vitro spermicidal activity using spermicidal dilution at 27.2 +/- 2.3 mg/mL in the Sander-Cramer test. Particulars: read-out: MEC. In kind it is functional.
Experiment [14] is filed under the species Homo sapiens. In words: In vitro spermicidal activity using spermicidal dilution at 48.0 +/-5.1 mg/mL in the Sander-Cramer test. The class given is functional. The conditions noted are these: read-out: MEC.
For experiment [15], the species on record is Homo sapiens. In words: In vitro spermicidal activity using spermicidal dilution at 134.4 +/- 14.2 mg/mL in the Sander-Cramer test. The class given is functional. Particulars: read-out: MEC.

≈ marks a conversion by molar mass, not a printed value. Calls of active or inactive are those of the source.

`CCCCCCCCCCC[C@@]1(O)C[N+](C)(C)C[C@@H](CC(=O)[O-])O1`: the minimum inhibitory concentration (MIC) in [1] is above 100 µg/mL. The result in experiment [2] and in experiment [3] was inactive. In addition, the Activity in [4] worked out at 0.8; in experiment [5] it was 2; in [6] it was 4.7; in experiment [7], 2.7. Moreover, the minimal effective concentration in [8] is 1400 µg/mL.

`CCCCCCCCCCCCCC[C@@]1(O)C[N+](C)(C)C[C@@H](CC(=O)[O-])O1`: the MIC in experiment [1] was found to be 10 µg/mL (≈ 25.9 µM). Besides, the Activity in [9] is 0.5; in experiment [10] it was 1.5; in experiment [4] it was 2.8; in [5] it was 3.5; in [6], above 4; in experiment [7] it was above 4. In addition, the minimal effective concentration in [11] stood at 121 µg/mL.

In experiment [1], `CCCCCCCCCC[C@@]1(O)C[N+](C)(C)C[C@@H](CC(=O)[O-])O1` displayed an MIC above 100 µg/mL. Moreover, the result in [2] and in experiment [3] was inactive. Further, the Activity was 0.8 in experiment [4], 1 in experiment [5], above 4 in experiment [6] and 2.8 in [7]. The minimal effective concentration in [12] was 2300 µg/mL.

Turning to `CCCCCCCCCCCC[C@@]1(O)C[N+](C)(C)C[C@@H](CC(=O)[O-])O1`, the MIC in experiment [1] stood at 80 µg/mL (≈ 224 µM). In addition, the Activity in experiment [9] was 0; in experiment [10], 0.3; in [4], 2; in experiment [5], 2.8; in [6], above 4; in [7], above 3.5. The minimal effective concentration in experiment [13] is 407 µg/mL.

As to `CCCCCCCCCCCCC[C@@]1(O)C[N+](C)(C)C[C@@H](CC(=O)[O-])O1`, in experiment [1], the minimum inhibitory concentration (MIC) was determined as 40 µg/mL (≈ 108 µM). Besides, the Activity in experiment [9] amounted to 0.5; in experiment [10], 1.5; in [4], 2.7; in experiment [5], 3.3; in [6], 3.5; in experiment [7] it was 3.5. In addition, in experiment [14], the minimal effective concentration worked out at 235 µg/mL.

The molecule `CCCCCCCCCCCCCCC[C@@]1(O)C[N+](C)(C)C[C@@H](CC(=O)[O-])O1` [HEMIACYLCARNITINIUM] displayed an MIC in experiment [1] of 2 µg/mL (≈ 5 µM). The Activity in experiment [9] is 0.3; in [10], 1.5; in experiment [4], 2.7; in experiment [5] it was 3.2; in [6], above 4; in experiment [7], 3.8. Moreover, in [15], the minimal effective concentration was determined as 109 µg/mL.

What is called MIC is the smallest concentration in the dilution series that meets the test's criterion for growth inhibition.
